Reference: patent US20230066156A1, “6-SUBSTITUTED, 22-CYANO HYODEOXYCHOLANIC ANALOGUES AND USES THEREOF” (PRECISION BIO-THERAPEUTICS S.R.L., priority 2019, published 2023)

Legend:
[1] = target: T1, human GPBAR1 (Homo sapiens, UniProt Q8TDU6); assay: GPBAR1 mediated transactivation, CRE-luciferase reporter in transfected HEK-293T cells; type: cell-based; details: for EC50: HEK-293T CRE-luciferase transactivation; for GPBAR1 (% of activity in comparison to 10 μM TLCA): compound at 10 microM, HEK-293T, TLCA = 100%, triplicate; for GPBAR1/FXR selectivity: ratio between % of activity toward GPBAR1 and % of activity toward FXR
T1 construct: expressed in transfected cells; host or cells: HEK-293T
T1 sequence (Q8TDU6 1-330): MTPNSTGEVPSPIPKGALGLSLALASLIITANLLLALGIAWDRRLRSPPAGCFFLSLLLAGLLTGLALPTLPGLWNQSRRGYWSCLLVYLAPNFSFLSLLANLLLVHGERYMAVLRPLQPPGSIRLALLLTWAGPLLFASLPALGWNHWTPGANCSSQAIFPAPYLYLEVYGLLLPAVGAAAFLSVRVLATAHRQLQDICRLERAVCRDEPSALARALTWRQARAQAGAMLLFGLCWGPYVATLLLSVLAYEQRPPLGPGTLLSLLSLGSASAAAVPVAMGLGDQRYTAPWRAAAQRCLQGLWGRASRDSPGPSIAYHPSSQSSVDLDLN
Procedure: (§1) Selected compounds were tested in vitro on FXR and TGR5/GPBAR1 receptors (Table 1) using a whole cell model transfected with a reporter genes. The activity was evaluated in comparison with chenodeoxycholic acid (CDCA) and TLCA.
(§2) CDCA is a primary bile acid that functions as an endogenous ligand for FXR, while TLCA is a physiological ligand for TGR5/GPBAR1. In this assay, HepG2 cells (a liver-derived cell line) were cultured at 37° C. in minimum essential medium with Earl's salts containing 10% fetal bovine serum (FBS), 1% L-glutamine, and 1% penicillin/streptomycin. HEK-293T cells were cultured at 37° C. in D-MEM containing 10% fetal bovine serum (FBS), 1% L-glutamine, and 1% penicillin/streptomycin. The transfection experiments were performed using Fugene HD according to manufactured specifications. Cells were plated in a 24-well plate at 5×10^4 cells/well. For FXR mediated transactivation, HepG2 cells were transfected with 100 ng of pSG5-FXR, 100 ng of pSG5-RXR, 100 ng of pGL4.70 a vector encoding the human Renilla gene and 250 ng of the reporter vector p(hsp27)-TK-LUC containing the FXR response element IR1 cloned from the promoter of heat shock protein 27 (hsp27).
For GPBAR1 mediated transactivation, HEK-293T cells were transfected with 200 ng of pGL4.29, a reporter vector containing a cAMP response element (CRE) that drives the transcription of the luciferase reporter gene luc2P, with 100 ng of pCMVSPORT6-human GPBAR1, and with 100 ng of pGL4.70 a vector encoding the human Renilla gene. In control experiments HEK-293T cells were transfected only with vectors pGL4.29 and pGL4.70 to exclude any possibility that compounds could activate the CRE in a GPBAR1 independent manner. At 24 h post-transfection, cells were stimulated for 18 h with 10 μM TLCA as a control agent or putative GPBAR1 agonists as the same concentration. After treatments, cells were lysed in 100 μL of lysis buffer (25 mM Tris-phosphate, pH 7.8; 2 mM DTT; 10% glycerol; 1% Triton X-100), and 20 μL of cellular lysate was assayed for luciferase activity using the luciferase assay system. Luminescence was measured using Glomax 20/20 luminometer. Luciferase activities were normalized against Renilla activities. Antagonism against FXR of GPBAR1/TGR5 was measured as percent of activity in transactivation assay suing activity of TLCA as example of agonism.
(§3) The data on the activity of certain compounds of the invention on TGR5/GPBAR1 are described in the following table 1. In this table, activities for compounds of the invention on GPBAR1 was compared to those of the reference compound TLCA. For % of activity, each compound was tested at the concentration of 10 microM and transactivation activity of TLCA on CRE (i.e. TGR5/GPBAR1) was considered equal to 100%. For selectivity toward FXR, activity was assessed in HepG2 cells transfected with an FXR responsive element (IR1) cloned upstream to the luciferase gene. For calculation of efficacy data, maximal transactivation of IR1 caused by each compound (10 μM) was compared to maximal transactivation caused by CDCA (10 μM). GPBAR1/FXR selectivity calculated as ratio between % of activity toward GPBAR1 and % of activity toward FXR. Each experiment was conducted in triplicate.

[2] = target: T2, FXR (Homo sapiens, UniProt Q96RI1); assay: FXR mediated transactivation, IR1 (hsp27)-luciferase reporter in transfected HepG2 cells; type: cell-based; details: compound at 10 μM, HepG2, vs maximal transactivation by CDCA 10 μM, triplicate
T2 construct: expressed in transfected cells; host or cells: HepG2
T2 sequence (Q96RI1 1-486): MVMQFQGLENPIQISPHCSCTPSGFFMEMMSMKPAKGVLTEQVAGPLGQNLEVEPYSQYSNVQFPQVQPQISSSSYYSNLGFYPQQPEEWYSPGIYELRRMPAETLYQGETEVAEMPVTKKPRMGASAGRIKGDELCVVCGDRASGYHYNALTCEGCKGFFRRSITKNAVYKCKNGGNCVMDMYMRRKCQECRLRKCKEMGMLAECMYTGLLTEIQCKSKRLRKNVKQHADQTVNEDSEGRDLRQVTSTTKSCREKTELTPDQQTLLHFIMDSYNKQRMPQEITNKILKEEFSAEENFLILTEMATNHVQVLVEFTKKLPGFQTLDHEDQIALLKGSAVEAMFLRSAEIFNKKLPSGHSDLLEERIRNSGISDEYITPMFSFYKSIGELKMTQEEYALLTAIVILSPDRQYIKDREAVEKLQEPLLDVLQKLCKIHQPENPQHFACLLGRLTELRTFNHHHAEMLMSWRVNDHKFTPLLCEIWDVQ
T2 sequence (P19793 1-462 partner): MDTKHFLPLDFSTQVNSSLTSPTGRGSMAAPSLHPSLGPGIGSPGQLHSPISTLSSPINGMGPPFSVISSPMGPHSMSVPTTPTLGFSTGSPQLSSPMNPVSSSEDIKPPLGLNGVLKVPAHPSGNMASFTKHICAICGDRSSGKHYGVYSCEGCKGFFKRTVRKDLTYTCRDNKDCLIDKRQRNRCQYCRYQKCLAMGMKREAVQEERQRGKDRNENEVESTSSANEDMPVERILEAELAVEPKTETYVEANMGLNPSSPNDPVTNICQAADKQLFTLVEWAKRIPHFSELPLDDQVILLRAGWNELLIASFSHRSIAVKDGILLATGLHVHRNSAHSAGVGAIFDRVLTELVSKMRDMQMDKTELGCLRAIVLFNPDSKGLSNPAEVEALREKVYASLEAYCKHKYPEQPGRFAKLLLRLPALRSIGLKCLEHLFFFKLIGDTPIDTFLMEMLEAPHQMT
Procedure: as §1, §2, §3

SMILES	EC50 [1]	GPBAR1 (% of activity in comparison to 10 μM TLCA) [1]	GPBAR1/FXR selectivity [1]	FXR (% of activity in comparison to 10 μM CDCA) [2]
C=C[C@]1(O)C[C@@H]2[C@H](CC[C@]3(C)[C@@H]([C@H](C)CC#N)CC[C@@H]23)[C@@]2(C)CC[C@@H](O)C[C@H]21 [PBT113, 3α, 6α-dihydroxy-6β-vinyl-24-nor-5β-cholane-23-nitrile]	2260 nM	62.5 ± 2.18%	28.4	2.2 ± 0.5%
CC(C)[C@]1(O)C[C@@H]2[C@H](CC[C@]3(C)[C@@H]([C@H](C)CC#N)CC[C@@H]23)[C@@]2(C)CC[C@@H](O)C[C@H]21 [PBT112, 3α, 6α-dihydroxy-6β-isopropyl-24-nor-5β-cholane-23-nitrile]	2780 nM	22.2 ± 0.13%	5.16	4.3 ± 0.31%
CCC[C@]1(O)C[C@H]2[C@@H]3CC[C@H]([C@H](C)CC#N)[C@@]3(C)CC[C@@H]2[C@@]2(C)CC[C@@H](O)C[C@@H]12 [PBT111, 3α,6α-dihydroxy-6β-propyl-24-nor-5β-cholan-23-nitrile]	1200 nM	67.1 ± 2.1%	21.6	3.1 ± 0.29%
CC[C@@]1(O)C[C@H]2[C@@H]3CC[C@H]([C@H](C)CC#N)[C@@]3(C)CC[C@@H]2[C@@]2(C)CC[C@@H](O)C[C@@H]12 [PBT110A, 3α,6β-dihydroxy-6α-ethyl-24-nor-5β-cholan-23-nitrile]	660 nM	65.9 ± 1.69%	9.9	6.6 ± 0.065%
C[C@H](CC#N)[C@H]1CC[C@H]2[C@@H]3C[C@@](O)(c4ccccc4)[C@@H]4C[C@H](O)CC[C@]4(C)[C@H]3CC[C@]12C [PBT115, 3α, 6α-dihydroxy-6β-phenyl-24-nor-5β-cholane-23-nitrile]	4580 nM	38.8 ± 1.79%	2.13	18.2 ± 1.08%
C[C@H](CC#N)[C@H]1CC[C@H]2[C@@H]3C[C@@](C)(O)[C@@H]4C[C@H](O)CC[C@]4(C)[C@H]3CC[C@]12C [PBT109A, 3α, 6β-dihydroxy-6α-methyl-24-nor-5β-cholan-23-nitrile]	570 nM	83.4 ± 2.4%	15.1	5.5 ± 0.7%
C=CCCC[C@]1(O)C[C@H]2[C@@H]3CC[C@H]([C@H](C)CC#N)[C@@]3(C)CC[C@@H]2[C@@]2(C)CC[C@@H](O)C[C@@H]12 [PBT114, 3α, 6α-dihydroxy-6β-(4-Pentenyl)-24-Nor-5β-Cholane-23-Nitrile]	780 nM	90.1 ± 1.35%	56.31	1.6 ± 0.05%
C[C@H](CC#N)[C@H]1CC[C@H]2[C@@H]3C[C@](C)(O)[C@@H]4C[C@H](O)CC[C@]4(C)[C@H]3CC[C@]12C [PBT109B, 3α,6α-dihydroxy-6β-methyl-24-nor-5β-cholan-23-nitrile]	6900 nM	95.4 ± 0.24%	14.9	6.4 ± 0.23%
C[C@H](CC#N)[C@H]1CC[C@H]2[C@@H]3C[C@](O)(Cc4ccccc4)[C@@H]4C[C@H](O)CC[C@]4(C)[C@H]3CC[C@]12C [PBT117, 3α,6β-dihydroxy-6α-benzyl-24-nor-5β-cholane-23-nitrile]	9330 nM	8.3 ± 0.015%	1.88	4.4 ± 0.49%
